From patent US5141735A (priority 1990, dated 1992)
Like-named read-outs stand apart in the source and are kept apart here.

What was measured:
viremia = conditions: cited from earlier work
[1] = system: HIV-1-infected CEM-cells (strain N1T); assay: Anti-HIV effect: reduction of immunofluorescence-positive CEM cells (cell-associated viral antigens); format: cell-based
Method: (§1) Compounds were tested directly for their anti-HIV effect. The assay protocols for the inhibition of HIV-cytopathic effect and the reduction of cell-associated viral antigens were modified from published procedures (Mitsuya, et al. P.N.A.S, USA 83:1911 (1986), and Hedenskog et al., J. Med. Virol. 19:325 (I986)).
(§2) High titer virus stocks (HIV-1 NIT strain or HIV-2 uc-1 strain) were grown in CD4^+ CR10 cells in RMPI-1640 media (Gibco Laboratories) supplemented with 10% fetal calf serum and 0.1 mg/ml Gentamicin. The collected media were filtered through a 0.8 micron filter and virus isolates were concentrated 100 fold and stored at -80° C.
(§3) CD4^+ CEM cells, propagated in the same medium, were incubated for 60 minutes at 37° C. with diluted stock virus at a multiplicity of infection equal to 1 (MOI=1, approximately 1 pg p24 or 4,000 viral particles per cell). Cells were washed three times with phosphate buffered saline and resuspended in the medium at 2×10^5 cells/ml. Various quantities of the test compound in DMSO, synthesized as described above were added. Four days after infection, the number of live cells were counted by trypan blue exclusion (Mitsuya, et al. Proc. Natl. Acad. Sci. 83:1911 (1986)). At the same time, aliquots of cells were fixed with acetone and stained with antibodies from AIDS patients, followed by a second staining with fluorescein-conjugated goat anti-human IgG (Cappel). Cells stained with the fluorescent antibody were counted using a fluorescence microscope and the results were expressed as percentage of the total number of cells counted (Hedenskog et al., J. Med. Virol 19:325 (1986)).
*ID50 (μM) is the concentration of test compound that reduces the
number of immunofluorescence positive cells by 50%.

HIV-1-infected CEM-cells = assay: Inhibition of HIV-cytopathic effect: live cell count by trypan blue exclusion; format: cell-based
Method: as §1, §2, §3

viral p24 antigen = assay: Viral p24 antigen in culture media measured by ELISA; format: cell-based, HIV; conditions: acutely infected CEM cells, FIG. 2
Method: As an additional measure of anti-HIV activity, the amount of p24 antigen in the culture media was measured by ELISA (Abbott) according to the procedure described by the manufacturer. This measurement is an indication of HIV virus replication.

viral RNA = assay: Cell-associated viral RNA by RNA-RNA hybridization/reversible target capture; format: cell-based, HIV; conditions: acutely infected CEM cells, FIG. 2
Method: In addition, the viral RNA in infected cells was quantified with an RNA-RNA hybridization/reversible target capture procedure [Gillespie et al. Molecular and Cellular Probes, 2:73 (1989)]. Reagents were purchased from GeneTrack System (MA, USA) and assays were carried out according to the procedure described by the manufacturers. 2×10^5 live cells, determined by trypan blue exclusion, were used in each assay.

HIV-TAT [2] = assay: Anti-HIV-TAT transfection assay (SeAP under HIV-LTR vs RSV-LTR in COS cells); format: cell-based; conditions: 1-50 μM; HIV-LTR/SeAP relative to RSV-LTR/SeAP; added 24 hours post transfection; average of at least three tests
Method: The compounds of the present invention were also tested for anti-HIV-TAT activity in an anti-TAT assay described in co-pending patent application U.S. Ser. No. 07/428,555, filed on Oct. 30, 1989, and hereby incorporated by reference. This assay comprises the following steps:
(a) putting both the expression of the Secreted Alkaline Phosphatase (SeAP) gene and the viral transactivator TAT gene under the control of the HIV promoter LTR responsive to the action of the HIV transactivator TAT;
(b) transfecting cultured mammalian cells with plasmids which contain the gene constructs of (a) above and cause cellular production of the transactivating factor TAT and SeAP;
(c) adding the agent to be tested, here compounds of formula I; and
(d) determining the amount of SeAP produced by measuring SeAP enzymatic activity, whereby inhibition of SeAP production correlates with the anti-TAT inhibition activity.
In this assay, the inhibition of SeAP positively correlates with anti-TAT activity. The greater the ability of an agent to inhibit SeAP, the greater is its anti-TAT activity.
Specifically, with respect to the results reported below, the anti-HIV-TAT assay was run as follows: […]
determined by measuring the amount of alkaline phosphatase in […]
calculated according to the formula: […]

HIV-TAT [3] = assay: Anti-HIV-TAT activity in CHO-derived cell lines constitutively expressing SeAP under HIV-LTR; format: cell-based; conditions: FIG. 4
Method: (§4) Compounds of formula I were also tested for anti-HIV-TAT activity with cell lines that constitutively express the SeAP gene under the control of the HIV-LTR. Cell lines 193c, 191F and 199F were derived from CHO cells (cell line of Chinese hamster ovary origin). Each line is of clonal origin and has the HIV-LTR/SeAP and the HIV-LTR/TAT sequences integrated in the cellular chromosome. One day after cells were plated (approximately 30% confluency), a compound of formula I in DMSO (0.05% final concentration) was added to the culture media at desired concentrations. The cells were washed and Compound A was replenished one day later. SeAP activity was assayed two days after the second addition of test compound. The cytotoxic effect of the compound was measured with a MTT assay, an art-recognized measurement of cytotoxicity. See Denigot et al., J. Immunol. Methods 89:271 (1986). This assay also confirmed the specific anti-TAT activity of applicants' compounds.

[4] = system: Cell lines 193c, 191F and 199F; assay: Cytotoxicity by MTT assay in CHO-derived cell lines 193c, 191F and 199F; format: cell-based, Chinese hamster; conditions: FIG. 4
Method: The Y-axis is (1) the percent inhibition in TAT transactivation measured according to SeAP activity in culture media (discussed infra), and (2) a measurement of cytotoxicity based on an MTT assay. The MTT assay is a known tetrazolium-based assay which measures the viability of cells. The X-axis is the concentration of compound. The solid circles, diamonds and squares represent the three different cell lines identified at the bottom of the Figure.
as §4, with “This assay also confirmed the specific anti-TAT activity of applicants' compounds.” left out

HIV = conditions: body weight; cited from earlier work
[5] = Human immunodeficiency virus 1, CCRF-CEM, 96 h, concentration that reduces the number of immunofluorescence positive cells by 50%, Table I, read-out: Anti-HIV ID50

## Cc1cn([C@H]2C[C@H](N=[N+]=[N-])[C@@H](CO)O2)c(=O)[nH]c1=O [AZT]
viremia
  elimination of viremia in patients: does not eliminate viremia in patients
viremia; patients
  drug resistance: eventually the appearance of drug-resistant mutant viruses is evidenced

## CNC1=Nc2ccc(Cl)cc2C(c2ccc[nH]2)=NC1 [Compound A, 7-chloro-N-methyl-5-(1H-pyrrol-2-yl)-3H-1,4-benzodiazepin-2-amine]
[1]; Human immunodeficiency virus 1, CCRF-CEM, 96 h, FIG. 1, HIV-1-infected CEM-cells (strain N1T), read-out: ID50 (the source's name)
  IC50: 500 nM
[1]; Human immunodeficiency virus 1, CCRF-CEM, 96 h, FIG. 1, HIV-1-infected CEM-cells (strain N1T), read-out: ID90 (the source's name)
  IC90: 1000 nM
[1]; [5]
  IC50: 500 to 1000 nM
[1]; increasing amounts of compound, FIG. 1
  percentage of cells that are immunofluorescence-positive following staining with HIV antibodies: decline in the percentage of cells that are immunofluorescence-positive
HIV-1-infected CEM-cells; 5 μM, FIG. 1, HIV-1-infected CEM-cells
  survival rate for the HIV-infected cells: very close to that of uninfected cells
HIV-1-infected CEM-cells; FIG. 1
  survival of HIV-infected cells with increasing concentrations: greater survival of HIV-infected cells
HIV-1-infected CEM-cells; acutely infected CEM cells, FIG. 2
  cell survival in comparison to AZT or ddC: at least similar, and at several compound concentrations, better, cell survival than AZT or ddC
Viral p24 antigen
  amount of viral p24 antigen: dramatically reduces
Viral RNA
  amount of cell-associated viral RNA: dramatically reduces
HIV-TAT [2]
  Anti-HIV-TAT Activity (% Inhibition): > 60%
HIV-TAT [3]
  inhibition of SeAP expression under the control of the HIV-LTR promoter: significantly inhibits SeAP expression
[4]
  cytotoxic effect on the cells: no cytotoxic effect on the cells

## NC1=Nc2ccc(Cl)cc2C(c2ccc[nH]2)=NC1 [NH2, 7-chloro-5-(1H-pyrrol-2-yl)-3H-1,4-benzodiazepin-2-amine]
[1]; [5]
  IC50: 1000 nM
HIV-TAT [2]
  Anti-HIV-TAT Activity (% Inhibition): > 60%

## Nc1ccn([C@H]2CC[C@@H](CO)O2)c(=O)n1 [ddC]
HIV
  virustatic dose range in most patients: 5 to 250 µg/kg
